Tests used:
12-lipoxygenase [1] = molecular target: T1, 12-lipoxygenase (Rattus norvegicus, UniProt F1LQ70); assay: 12-Lipoxygenase Inhibition Activity (In Vitro), 12-HETE production by rat platelet enzyme solution; type: biochemical; conditions: [14C]-arachidonic acid, 5 min pre-incubation at 37° C., 5 min reaction, read-out: Inhibition rate (%) of 12-HETE production; for inhibition at 1 µM: 10^-6 M; for inhibition at 0.1 µM: 10^-7 M
T1 construct: the frozen platelet rich plasma was allowed to melt and then subjected to ultrasonic treatment in ice water so that an enzyme solution was obtained; from tissue; host or cells: rat platelets (washed, frozen, sonicated; crude enzyme solution)
T1 sequence (F1LQ70 1-663): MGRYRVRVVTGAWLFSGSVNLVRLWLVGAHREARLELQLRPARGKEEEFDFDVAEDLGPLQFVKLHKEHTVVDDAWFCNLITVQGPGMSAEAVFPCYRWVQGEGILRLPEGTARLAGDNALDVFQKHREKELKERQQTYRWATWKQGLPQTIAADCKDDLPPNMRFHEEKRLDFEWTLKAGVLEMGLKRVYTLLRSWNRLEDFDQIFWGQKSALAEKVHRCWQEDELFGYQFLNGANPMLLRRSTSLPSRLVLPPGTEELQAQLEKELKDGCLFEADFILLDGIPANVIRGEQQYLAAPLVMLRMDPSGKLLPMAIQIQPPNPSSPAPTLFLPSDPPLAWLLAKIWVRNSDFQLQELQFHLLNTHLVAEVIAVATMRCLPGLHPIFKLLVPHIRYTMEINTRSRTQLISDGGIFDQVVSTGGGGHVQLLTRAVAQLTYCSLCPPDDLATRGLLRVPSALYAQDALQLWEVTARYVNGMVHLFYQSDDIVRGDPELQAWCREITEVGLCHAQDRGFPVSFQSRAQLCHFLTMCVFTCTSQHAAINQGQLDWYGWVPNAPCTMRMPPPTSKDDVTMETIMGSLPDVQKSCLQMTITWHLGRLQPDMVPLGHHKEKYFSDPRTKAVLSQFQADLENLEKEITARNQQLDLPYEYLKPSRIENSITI
Procedure: The 12-lipoxygenase inhibition activity of each test compound according to the present invention was measured in the following manner.
Firstly, blood was collected from the heart of a rat (while using sodium citrate as an anticoagulant), and platelet rich plasma was prepared by a method known per se in the art. The platelet rich plasma was washed twice with a isotonic buffer (A) [134 mM of NaCl, 5 mM of D-glucose, 1 mM of EDTA, 1 mM of EGTA, 15 mM of tris-HCl (pH 7.4)] and was then frozen and stored at -80° C. Prior to a pharmacological test, the frozen platelet rich plasma was allowed to melt and then subjected to ultrasonic treatment in ice water so that an enzyme solution was obtained. To the isotonic buffer (A), 1 mM of GSH, the test compound (adjusted to have the final concentrations of 1 μM and 0.1 μM) and the enzyme solution (300-500 μg of protein) were added. Subsequent to pre-incubation at 37° C. for 5 minutes, [^14 C]-arachidonic acid (0.05 μCi) (final concentration: […]) was added to react it for 5 minutes. After the reaction was terminated, the reaction mixture was spread over a thin layer plate of silica gel to conduct autoradiography. 12-HETE was identified and a reduction in its production was determined as an index for its 12-lipoxygenase inhibition activity.

[2] = system: 12-Lipoxygenase in platelets; assay: 12-Lipoxygenase Inhibition Activity in Platelets (Extro Vivo); design: species or system SD rat; conditions: 1.0 mg/kg i.v., blood 10 min after administration; base preparation group = 100%
Procedure: Under anesthesia with pentobarbital, an SD rat (8 week-old, male) was intravenously administered with a polyethylene glycol solution containing 1.0 mg/kg of a test compound. Ten minutes after the administration, blood was collected from the abdominal vena cava, and the inhibitory activity was measured as in the above test (1).
Setting at 100% the amount of 12-HETE of the group in which a base preparation was administered instead of the drugs, the results, namely, the amount of 12-HETE obtained when each test drug was administered was indicated in terms of %.

12-lipoxygenase [3] = conditions: conventionally known compound; cited from earlier work

| Compound | inhibition at 1 µM (12-lipoxygenase [1]) | inhibition at 0.1 µM (12-lipoxygenase [1]) | inhibitory effect on amount of 12-HETE [2] | 12-lipoxygenase inhibitory action (12-lipoxygenase [3]) |
| --- | --- | --- | --- | --- |
| CCOC(=O)Oc1ccc(C=C(C#N)C(=O)OCC)cc1OC(=O)OCC [Compound 6, ethyl 2-cyano-3-(3,4-diethoxycarbonyloxyphenyl)-2-propenoate] |  | 60.3% |  |  |
| CCOC(=O)Oc1ccc(C=C(C#N)C(=O)OCc2ccco2)cc1OC(=O)OCC [Compound 11, 2-furylmethyl 2-cyano-3-(3,4-diethoxycarbonyloxyphenyl)-2-propenoate] | 53.8% | 23.5% |  |  |
| CCOC(=O)Oc1ccc(C=C(C#N)C(=O)OCCCc2ccccn2)cc1OC(=O)OCC [Compound 12, 3-(2-pyridyl)-propyl 2-cyano-3-(3,4-diethoxycarbonyloxyphenyl)-2-propenoate] | 68.4% | 16.3% |  |  |
| CCOC(=O)Oc1ccc(C=C(C#N)C(=O)OCc2ccsc2)cc1OC(=O)OCC [Compound 14, 3-thienylmethyl 2-cyano-3-(3,4-diethoxycarbonyloxyphenyl)-2-propenoate] | 64.6% | 34.6% |  |  |
| COC(=O)Oc1ccc(C=C(C#N)C(=O)OCCc2cccs2)cc1OC(=O)OC [Compound 19, 2-(2-thienyl)-ethyl 2-cyano-3-(3,4-dimethoxycarbonyloxyphenyl)-2-propenoate] | 50.8% | 4.6% |  |  |
| CC(C)COC(=O)Oc1ccc(C=C(C#N)C(=O)OCCc2cccs2)cc1OC(=O)OCC(C)C [Compound 20, 2-(2-thienyl)-ethyl 2-cyano-3-(3,4-diisobutoxycarbonyloxyphenyl)-2-propenoate] | 63.4% | 41.2% |  |  |
| N#CC(=Cc1ccc(OC(=O)OCc2ccccc2)c(OC(=O)OCc2ccccc2)c1)C(=O)OCCc1cccs1 [Compound 21, 2-(2-thienyl)-ethyl 2-cyano-3-(3,4-dibenzyloxycarbonyloxyphenyl)-2-propenoate] | 41.6% | < 0% |  |  |
| CCCCCCCOC(=O)Oc1ccc(C=C(C#N)C(=O)OCCc2cccs2)cc1OC(=O)OCCCCCCC [Compound 22, 2-(2-thienyl)-ethyl 2-cyano-3-(3,4-diheptoxycarbonyloxyphenyl)-2-propenoate] | 27.6% | 14% |  |  |
| CCOC(=O)Oc1cc(C=C(C#N)C(=O)OCCc2cccs2)cc(OC(=O)OCC)c1OC(=O)OCC [Compound 29, 2-(2-thienyl)-ethyl 2-cyano-3-(3,4,5-triethoxycarbonyloxyphenyl)-2-propenoate] | 59.2% | 25.1% |  |  |
| N#CC(=Cc1ccc2oc(=O)oc2c1)C(=O)OCCc1cccs1 [Compound 34, 2-(2-thienyl)-ethyl 2-cyano-3-(3,4-cyclic dioxolonylphenyl)-2-propenoate] |  | 91.5% |  |  |
| N#CC(=Cc1ccc2oc(=O)oc2c1)C(=O)Oc1ccccc1 [Compound 36, phenyl 2-cyano-3-(3,4-cyclic dioxolonylphenyl)-2-propenoate] |  | 75.6% |  |  |
| O=c1cc(-c2ccccc2)oc2cc(O)c(O)c(O)c12 [baicalein] |  |  |  | 12-lipoxygenase inhibitory action |

Continued, in another order:

| inhibition at 1 µM (12-lipoxygenase [1]) | inhibition at 0.1 µM (12-lipoxygenase [1]) | Compound | inhibitory effect on amount of 12-HETE [2] | 12-lipoxygenase inhibitory action (12-lipoxygenase [3]) |
| --- | --- | --- | --- | --- |
| 85.4% | 52.9% | CCOC(=O)Oc1ccc(C=C(C#N)C(=O)OCCc2ccccc2)cc1OC(=O)OCC [Compound 1, phenethyl 2-cyano-3-(3,4-diethoxycarbonyloxyphenyl)-2-propenoate] | 30% |  |
| 75.6% | 40.8% | CCC[C@H](OC(=O)C(C#N)=Cc1ccc(OC(=O)OCC)c(OC(=O)OCC)c1)c1ccccc1 [Compound 7, (S)-(-)-1-phenylbutyl 2-cyano-3-(3,4-diethoxycarbonyloxyphenyl)-2-propenoate] |  |  |
| 65.1% | 9.4% | CCC[C@@H](OC(=O)C(C#N)=Cc1ccc(OC(=O)OCC)c(OC(=O)OCC)c1)c1ccccc1 [Compound 8, (R)-(+)-1-phenylbutyl 2-cyano-3-(3,4-diethoxycarbonyloxyphenyl)-2-propenoate] |  |  |
| 71.8% | 4.2% | CCOC(=O)Oc1ccc(C=C(C#N)C(=O)OC(C)Cc2ccccc2)cc1OC(=O)OCC (centres unmarked) [Compound 9, 1-methyl-2-phenylethyl 2-cyano-3-(3,4-diethoxycarbonyloxyphenyl)-2-propenoate] |  |  |
| 79.3% | 38.7% | CCOC(=O)Oc1ccc(C=C(C#N)C(=O)OCCc2ccsc2)cc1OC(=O)OCC [Compound 10, 2-(3-thienyl)-ethyl 2-cyano-3-(3,4-diethoxycarbonyloxyphenyl)-2-propenoate] |  |  |
| 40.8% | < 0% | CCOC(=O)Oc1ccc(C=C(C#N)C(=O)OCCCc2cccnc2)cc1OC(=O)OCC [Compound 13, 3-(3-pyridyl)-propyl 2-cyano-3-(3,4-diethoxycarbonyloxyphenyl)-2-propenoate] |  |  |
| 75.9% | 59.3% | CCOC(=O)Oc1cc(C=C(C#N)C(=O)OCCc2ccccc2)ccc1O [Compound 17, phenethyl 2-cyano-3-(3-ethoxycarbonyloxy-4-hydroxyphenyl)-2-propenoate] | 18% |  |
|  | 65.8% | CCOC(=O)Oc1ccc(C=C(C#N)C(=O)OCCc2cccs2)cc1OC(=O)OCC [Compound 18, 2-(2-thienyl)-ethyl 2-cyano-3-(3,4-diethoxycarbonyloxyphenyl)-2-propenoate] |  |  |
| 84.5% | 64.5% | CCOC(=O)Oc1cc(C=C(C#N)C(=O)OCCc2cccs2)ccc1O [Compound 23, 2-(2-thienyl)-ethyl 2-cyano-3-(3-ethoxycarbonyloxy-4-hydroxyphenyl)-2-propenoate] |  |  |
| 82.9% | 56.6% | N#CC(=Cc1ccc2oc(=O)oc2c1)C(=O)OCCc1ccccc1 [Compound 35, phenethyl 2-cyano-3-(3,4-cyclic dioxolonylphenyl)-2-propenoate] |  |  |
